Results from PMC9995496, “A screen for MeCP2-TBL1 interaction inhibitors using a luminescence-based assay” (Scientific Reports, 2023).

Biological target: T1, MeCP2-TBL1 interaction (MeCP2-SmBiT / TBL1-LgBiT) (Mus musculus, UniProt Q9QXE7)
T1 construct: expressed in transfected cells; crude lysate used as a cell-free assay
T1 sequence (Q9QXE7 166-527): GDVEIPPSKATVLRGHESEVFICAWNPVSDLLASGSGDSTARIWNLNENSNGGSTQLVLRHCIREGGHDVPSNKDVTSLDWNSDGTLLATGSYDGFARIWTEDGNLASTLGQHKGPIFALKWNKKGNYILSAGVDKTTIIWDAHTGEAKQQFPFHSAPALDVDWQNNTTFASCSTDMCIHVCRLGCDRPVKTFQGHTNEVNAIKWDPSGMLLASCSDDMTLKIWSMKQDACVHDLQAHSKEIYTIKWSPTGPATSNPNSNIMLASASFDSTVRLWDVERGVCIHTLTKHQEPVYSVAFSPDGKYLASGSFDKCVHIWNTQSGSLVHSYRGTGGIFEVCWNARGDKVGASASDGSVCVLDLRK
Assay: MeCP2-TBL1 NanoLuc luciferase complementation assay (cell-free, extracts of transfected HEK293 cells);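 further: each compound tested at 20 µM final concentration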
Format: binding, human
Details: primary screen of Asinex library, single well per compound
Summary of the method: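 Cell-free split NanoLuc: lysate of HEK293 cells co-expressing the MeCP2 C-terminal half-SmBiT and TBL1 WD domain-LgBiT, mixed 1:1 with furimazine. After 30 min at room temperature, luminescence was plate-median normalized.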

Inhibition percent | Compound
-0.90 | O=C1CCCC[C@]2(CN(Cc3ccnc(N4CCCCC4)n3)C[C@H]2c2ccccc2)N1 [BDH_32353018]
-2.23 | CC(C)(NC(=O)COc1ccccc1)C(=O)N1CCC(Cc2cccc3ncccc23)CC1 [BDH_32354908]
3.35 | Cc1nonc1COc1ccccc1C(=O)N1C2CCC1CC(Cc1cnc3ccccc3c1)C2 (stereo not drawn) [BDH_32356179]
-1.24 | Cc1cc(C)n(-c2cccc(C(=O)N3CCCC(c4cncc(Oc5ccccc5)n4)C3)c2)n1 (stereo not drawn) [BDH_32356802]
3.03 | O=C(c1cccc(Nc2ncccn2)c1)N1C2CCC1CC(Cc1ccc3ccncc3c1)C2 (stereo not drawn) [BDH_32356948]
1.61 | O=C1OC2(CCCN(Cc3ccccc3OCc3ccccn3)CC2)CN1c1ccc(F)cc1 (stereo not drawn) [BDH_32357695]
-2.39 | O=C1CCCN1CCOc1cccc(C(=O)N2CCCC(Cc3ccnc4ccccc34)CC2)c1 (stereo not drawn) [BDH_32358595]
-3.52 | COc1ccc(C(=O)N2CCCC(Cc3cccc4ncccc34)C2)cc1NCc1ccncc1 (stereo not drawn) [BDH_32359947]
-0.14 | Cn1cc(C(=O)Nc2cccc(C(=O)N3CCCC(Cc4cnc5ccccc5c4)CC3)c2)cn1 (stereo not drawn) [BDH_32361063]
-1.66 | C[C@]12C[C@@H](c3ccc(F)cc3)N(C(=O)c3cccc(Oc4ncccn4)c3)[C@H]1CCCCC(=O)N2 [BDH_32362535]
0.11 | Cc1ccc(C(=O)N2CCC3(CC2)COC(Cc2cccc(F)c2)C3)cc1NCc1ccccn1 (stereo not drawn) [BDH_32362747]
-3.40 | Cc1cc(C(=O)N2CCC(Cc3cccc4cccnc34)CC2)nc(C2(C)CCN(C)CC2)n1 [BDH_32363559]
9.41 | O=C(c1cccc(Nc2ncccn2)c1)N1CCC2(CC1)COC(Cc1cccc(F)c1)C2 (stereo not drawn) [BDH_32363979]
-1.56 | Cc1cc(Oc2ccc(F)cc2)nc(C2CCCCN2C(=O)c2cccc(-n3cnnc3)c2)n1 (stereo not drawn) [BDH_32364593]
-0.96 | Cc1cc(Oc2ccc(F)cc2)nc(C2CCCCN2C(=O)c2cccc(-c3cncnc3)n2)n1 (stereo not drawn) [BDH_32364853]
-3.43 | CC(=O)N[C@@]12CN(C)CC[C@@H]1[C@@H](c1ccccc1)N(C(=O)c1cccc(-n3nc(C)cc3C)c1)C2 [BDH_32365020]

Same assay, conditions: primary screen of the Asinex library, sheet "Sargen output Asinex library", one well per compound

Inhibition percent | Compound
-4.25% | O=C1CCCC[C@]2(CN(Cc3ccnc(N4CCOCC4)n3)C[C@H]2c2cccc(F)c2)N1 [BDH_32352634]
-1.00% | O=C(c1ccccc1OCCN1CCOCC1)N1CCCC(Cc2ccnc3ccccc23)CC1 (stereo not drawn) [BDH_32353619]
1.91% | O=C(c1ccccc1CN1CCCC1)N1CCCC(c2cccc(Cc3ccccc3F)n2)C1 (stereo not drawn) [BDH_32353816]
-0.56% | CC(C)(NC(=O)c1cccc(F)c1)C(=O)N1CCC(c2cccc(Cc3ccccc3)n2)CC1 [BDH_32354126]
-0.73% | Cc1nonc1COc1ccccc1C(=O)N1CCCC(Cc2ccnc3ccccc23)CC1 (stereo not drawn) [BDH_32354216]
4.81% | Cc1nonc1COc1ccccc1C(=O)N1CCCC(Cc2cccc3cccnc23)CC1 (stereo not drawn) [BDH_32354219]
-4.55% | CN1CCC(Cc2cccc(F)c2)(C(=O)N2CCCC(Cc3cccc4ncccc34)C2)CC1 (stereo not drawn) [BDH_32354496]
-1.74% | CN1CCC(Cc2cccc(F)c2)(C(=O)N2CCC(Cc3cccc4cccnc34)CC2)CC1 [BDH_32354499]
-1.95% | CN1CCC(Cc2ccc(F)cc2)(C(=O)N2CCC(Cc3cccc4cccnc34)CC2)CC1 [BDH_32354505]
0.45% | O=C(CC1CCN(C(=O)C2(c3ccc(F)cc3)CCCC2)CC1)Nc1ccc2nccnc2c1 [BDH_32356175]
-4.31% | O=C(NCCC1CCCCN1C(=O)c1ccnc(Oc2cccc(F)c2)c1)c1ccccc1 (stereo not drawn) [BDH_32356851]
-2.36% | CN1CCCC(CCCc2cnccn2)(C(=O)N2CCC(Cc3cccc4cccnc34)CC2)C1 (stereo not drawn) [BDH_32356918]
0.88% | Cc1ccc(Oc2cc(C)nc(C3CCCCN3C(=O)c3ccnc(-c4cnn(C)c4)c3)n2)cc1 (stereo not drawn) [BDH_32357088]
-2.19% | O=C(c1ccccc1OCCN1CCOCC1)N1CCCC(Cc2ccc3ncccc3c2)C1 (stereo not drawn) [BDH_32358044]
-1.62% | Cc1cc(Oc2ccccc2)nc(C2CCN(C(=O)c3ccnc(N4CCN(C)CC4)c3)CC2)n1 [BDH_32358107]
1.07% | O=C1CCCC[C@]2(CN(Cc3ccccc3OCc3ccccn3)C[C@H]2c2ccc(F)cc2)N1 [BDH_32358404]
-12.20% | O=C1CCCN1CCOc1cccc(C(=O)N2CCCC(Cc3cnc4ccccc4c3)CC2)c1 (stereo not drawn) [BDH_32358596]
-0.32% | O=C1CCCN1CCOc1ccccc1C(=O)N1CCCC(Cc2ccc3ncccc3c2)CC1 (stereo not drawn) [BDH_32358602]
2.06% | COc1ccc(C2(C(=O)N3CCCC(Cc4cccc5ccncc45)CC3)CCOCC2)cc1 (stereo not drawn) [BDH_32359024]

Inhibition percent | Compound
-1.22% | Fc1cccc(COc2ccccc2CN2CCOCC(Cc3cn4ccnc4cn3)C2)c1 (stereo not drawn) [BDH_32359710]
-0.97% | COc1ccccc1[C@@H]1CN(Cc2cccc(Oc3ncccn3)c2)C[C@]12CCCCC(=O)N2 [BDH_32359781]
3.25% | Cc1cc(Oc2ccccc2)nc(C2CCN(C(=O)C3(C)CCN(c4ncccn4)CC3)CC2)n1 [BDH_32359876]
-4.50% | COc1ccc(C(=O)N2CCCC(Cc3ccc4ncccc4c3)C2)cc1NCc1ccncc1 (stereo not drawn) [BDH_32359951]
1.74% | O=C1CCCN1CCOc1cccc(C(=O)N2CCCC(Cc3cccc4cnccc34)CC2)c1 (stereo not drawn) [BDH_32360253]
0.07% | Cc1cccc(Oc2cncc(C3CCCN(C(=O)c4cccc(Cn5ccnc5C)c4)C3)n2)c1 (stereo not drawn) [BDH_32360361]
2.59% | Cc1nonc1COc1ccccc1C(=O)N1CCCC(Cc2nccn3cccc23)CC1 (stereo not drawn) [BDH_32360822]
-0.42% | O=C(c1ccccc1CN1CCOCC1)N1C2CCC1CC(Cc1cncc3ccccc13)C2 (stereo not drawn) [BDH_32360830]
-0.32% | Cn1cc(C(=O)Nc2cccc(C(=O)N3CCCC(Cc4ccnc5ccccc45)CC3)c2)cn1 (stereo not drawn) [BDH_32361062]
1.28% | Cc1cc(Oc2ccc(F)cc2)nc(C2CCCN(C(=O)c3cccc(Cn4ccnc4)c3)C2)n1 (stereo not drawn) [BDH_32361331]
-1.55% | Cc1cccc(Cc2cccc(C3CCCN(C(=O)c4ccnc(N5CCOCC5)c4)C3)n2)c1 (stereo not drawn) [BDH_32361750]
-0.71% | CC1(C(=O)N2CCOCC(Cc3ccc4cnccc4c3)C2)CCN(CCc2ccccc2)CC1 (stereo not drawn) [BDH_32362344]
-4.04% | CC1(C(=O)N2CCOCC(Cc3ccc4ccncc4c3)C2)CCN(CCc2ccccc2)CC1 (stereo not drawn) [BDH_32362347]
2.04% | Cc1cccc(Cc2cccc(C3CCCN(C(=O)c4ccnc(-c5cnn(C)c5)c4)C3)n2)c1 (stereo not drawn) [BDH_32362596]
-2.83% | O=C(c1cccc(Oc2ncccn2)c1)N1CC[C@H]2[C@H]1CCCCC(=O)N2Cc1ccccc1 [BDH_32363931]
-0.54% | Cc1c(C(=O)N2CCC(O)(CN3CCN(c4ccccc4)CC3)C2)cccc1N1CCOCC1 (stereo not drawn) [BDH_32364008]
-2.15% | Cc1nccn1Cc1ccccc1C(=O)N1CCCC(c2cncc(Oc3ccccc3)n2)C1 (stereo not drawn) [BDH_32364323]
-4.83% | Cc1cc(Oc2ccc(F)cc2)nc(C2CCCCN2C(=O)c2ccnc(-c3cncnc3)c2)n1 (stereo not drawn) [BDH_32364851]

Same assay, conditions: primary screen of the Asinex library, sheet "Sargen output Asinex library", one well per compound, Batch Ref. 1

Inhibition percent | Compound
1.21% | O=C1CCCC[C@]2(CN(Cc3ccnc(N4CCCCC4)n3)C[C@H]2c2cccc(F)c2)N1 [BDH_32353019]
2.11% | O=C(c1ccccc1OCCN1CCOCC1)N1CCCC(Cc2cccc3cccnc23)CC1 (stereo not drawn) [BDH_32353622]
1.54% | Cc1noc(C)c1COc1cccc(C(=O)N2CCCC(Cc3cccc4cnccc34)CC2)c1 (stereo not drawn) [BDH_32354458]
5.62% | Cc1nonc1COc1ccccc1C(=O)N1CCCC(Cc2ccc3ccncc3c2)CC1 (stereo not drawn) [BDH_32355894]
10.27% | Cc1ccc(Oc2ncccc2C(=O)N2CCC(c3cccc(Cc4ccccc4)n3)CC2)cn1 [BDH_32356013]
0.42% | Cc1cccc(Oc2cncc(C3CCCN(C(=O)c4ccnc(N5CCN(C)CC5)c4)C3)n2)c1 (stereo not drawn) [BDH_32358106]
2.74% | CN(C)CC(=O)N1CCCC(C)(C(=O)N2CCC(c3cccc(Cc4ccccc4)n3)CC2)C1 (stereo not drawn) [BDH_32359557]
8.15% | Cc1ccc(Oc2cccc(C3CN(C(=O)c4cccc(Cn5ccnc5)c4)CCO3)n2)cc1 (stereo not drawn) [BDH_32360064]
-2.76% | CC1(C(=O)N2CCCC(Cc3cccc4ccncc34)CC2)CCN(C(=O)c2ccccc2)CC1 (stereo not drawn) [BDH_32360998]
3.43% | COc1ccc(Oc2cncc(C3CCN(C(=O)C4(c5ccccc5)CCOCC4)CC3)n2)cc1 [BDH_32362557]
1.46% | O=C(c1ccccc1Cn1ccnc1)N1CCCC(c2cccc(Cc3ccc(F)cc3)n2)C1 (stereo not drawn) [BDH_32363926]
-1.79% | Cc1nc(N(C)C)cc(C2(C)CCCN(C(=O)c3ccc(Cl)c(N4CCOCC4)c3)C2)n1 (stereo not drawn) [BDH_32364491]
2.70% | COc1ccccc1Oc1cccc(C2CCN(C(=O)c3ccnc(N4CCOCC4)c3)CC2)n1 [BDH_32364726]
